Activity and IC50 data for 7 compounds are collected here from ChEMBL document CHEMBL3352062, “Synthesis and biological evaluation of bile carboxamide derivatives with pro-apoptotic effect on human colon adenocarcinoma cell lines” (Eur J Med Chem, 2014).

In experiment [1] the test system is HCT-116. Briefly: Antiproliferative activity against human HCT116 cells assessed as reduction in cell viability after 24 to 48 hrs by XTT assay. It counts as functional, cell-based. (In general: Tetrazolium assays rely on reduction of a dye to a coloured formazan, in cell work by metabolically active cells.)
Experiment [2] concerns HT-29. Kind of experiment: Antiproliferative activity against human HT-29 cells assessed as reduction in cell viability after 24 to 48 hrs by XTT assay. It counts as functional, cell-based.
In experiment [3] the test system is DLD-1. Kind of experiment: Antiproliferative activity against human DLD1 cells assessed as reduction in cell viability after 24 to 48 hrs by XTT assay. The experiment is classed as functional, cell-based.
The nature of experiment [4]: Antiproliferative activity against human DLD1 cells assessed as reduction in cell viability after 24 hrs by XTT assay. The experiment is classed as functional, cell-based. The note with it: DLD-1, 24 h.
Experiment [5] relates to HT-29. Briefly: Induction of apoptosis in human HT-29 cells assessed as APO2.7-positive cells at 30 uM after 24 hrs using propidium iodide by flow cytometry (reference value: 1.11 %). It counts as functional. (In general: In flow cytometry, cells or beads pass a laser one at a time.)
Experiment [6] can be described thus: Cell cycle arrest in human DLD1 cells assessed as accumulation at G0-G1 phase at 30 uM after 24 hrs using propidium iodide by flow cytometry (reference value: 35.37 %). The experiment is classed as functional, cell-based. The note with it: DLD-1.
Experiment [7] has as its system HT-29. Briefly: Induction of apoptosis in human HT-29 cells assessed as PARP cleavage at 30 uM after 24 hrs using propidium iodide by Western blot analysis. The experiment is classed as functional, cell-based.
Experiment [8] can be described thus: Antiproliferative activity against human HCT116 cells assessed as reduction in cell viability after 24 hrs by XTT assay. The note with it: HCT-116, 24 h. It counts as functional, cell-based.
The subject of experiment [9] is DLD-1. Briefly: Induction of apoptosis in human DLD1 cells assessed as PARP cleavage at 30 uM after 24 hrs using propidium iodide by Western blot analysis. It counts as functional, cell-based.
Experiment [10] can be described thus: Cell cycle arrest in human DLD1 cells assessed as accumulation at S phase at 30 uM after 24 hrs using propidium iodide by flow cytometry (reference value: 21.08 %). It counts as functional, cell-based. The note with it: DLD-1.
Experiment [11] in a line: Cell cycle arrest in human DLD1 cells assessed as accumulation at G2-M phase at 30 uM after 24 hrs using propidium iodide by flow cytometry (reference value: 39.85 %). The note with it: DLD-1. The experiment is classed as functional, cell-based.
Experiment [12] concerns DLD-1. Briefly: Induction of apoptosis in human DLD1 cells assessed as APO2.7-positive cells at 30 uM after 24 hrs using propidium iodide by flow cytometry (reference value: 1.01 %). The experiment is classed as functional.
In experiment [13] the test system is HCT-116. Kind of experiment: Induction of apoptosis in human HCT116 cells assessed as PARP cleavage at 30 uM after 24 hrs using propidium iodide by Western blot analysis. It counts as functional, cell-based.
Experiment [14] can be described thus: Cell cycle arrest in human HCT116 cells assessed as accumulation at sub-G1 phase at 30 uM after 24 hrs using propidium iodide by flow cytometry (reference value: 1.78 %). It counts as functional, cell-based. The note with it: HCT-116.
The nature of experiment [15]: Cell cycle arrest in human DLD1 cells assessed as accumulation at sub-G1 phase at 30 uM after 24 hrs using propidium iodide by flow cytometry (reference value: 1.73 %). The experiment is classed as functional, cell-based. The note with it: DLD-1.
Experiment [16] in a line: Cell cycle arrest in human HCT116 cells assessed as accumulation at G2-M phase at 30 uM after 24 hrs using propidium iodide by flow cytometry (reference value: 33.69 %). The experiment is classed as functional, cell-based. The note with it: HCT-116.
Experiment [17] concerns HT-29. Kind of experiment: Cell cycle arrest in human HT-29 cells assessed as accumulation at G0-G1 phase at 30 uM after 24 hrs using propidium iodide by flow cytometry (reference value: 43.78 %). The experiment is classed as functional.
Experiment [18] concerns HT-29. Kind of experiment: Antiproliferative activity against human HT-29 cells assessed as reduction in cell viability after 24 hrs by XTT assay. The experiment is classed as functional, cell-based. The note with it: HT-29, 24 h.
Experiment [19] in a line: Cell cycle arrest in human HCT116 cells assessed as accumulation at S phase at 30 uM after 24 hrs using propidium iodide by flow cytometry (reference value: 18.80 %). It counts as functional, cell-based. The note with it: HCT-116.
In experiment [20] the test system is HT-29. Briefly: Cell cycle arrest in human HT-29 cells assessed as accumulation at S phase at 30 uM after 24 hrs using propidium iodide by flow cytometry (reference value: 28.28 %). The experiment is classed as functional.
Experiment [21] in a line: Cell cycle arrest in human HCT116 cells assessed as accumulation at G0-G1 phase at 30 uM after 24 hrs using propidium iodide by flow cytometry (reference value: 42.61 %). It counts as functional, cell-based. The note with it: HCT-116.
Experiment [22] relates to HT-29. Briefly: Cell cycle arrest in human HT-29 cells assessed as accumulation at G2-M phase at 30 uM after 24 hrs using propidium iodide by flow cytometry (reference value: 21.66 %). The experiment is classed as functional.
For experiment [23], the system named is HT-29. Kind of experiment: Cell cycle arrest in human HT-29 cells assessed as accumulation at sub-G1 phase at 30 uM after 24 hrs using propidium iodide by flow cytometry (reference value: 3.18 %). The experiment is classed as functional.
In experiment [24] the test system is HCT-116. Briefly: Induction of apoptosis in human HCT116 cells assessed as APO2.7-positive cells at 30 uM after 24 hrs using propidium iodide by flow cytometry (reference value: 1.19 %). It counts as functional.

pIC50: −log10 of the molar value. Activity calls are given as the source filed them. The rule behind the calls is not given here.

As for `C[C@H](CCC(=O)N1CCN(C(c2ccccc2)c2ccc(Cl)cc2)CC1)[C@H]1CC[C@H]2[C@@H]3[C@@H](O)C[C@@H]4C[C@H](O)CC[C@]4(C)[C@H]3CC[C@]12C` (stereo not given in full), the Activity entry in experiment [1], in experiment [2] and in [3] was “Dose-dependent effect” each time.
`C[C@H](CCC(=O)N1CCN(Cc2ccccc2)CC1)[C@H]1CC[C@H]2[C@@H]3CC[C@@H]4C[C@H](O)CC[C@]4(C)[C@H]3C[C@H](O)[C@]12C`: the pIC50 in [4] is 4.59; in [8], 4.66; in experiment [18], 4.49. The Activity worked out at 1.26% in experiment [5]; 28.5% in experiment [6]; 15.4% in [10]; 39% in experiment [11]; 2.49% in [12]; 14.8% in experiment [14]. Further, the Activity in experiment [15] worked out at 14.3%; in [16], 28.9%; in [17], 36.89%; in experiment [19] it was 18.4%; in [20] it was 15.67%; in [21], 33.6%. Also, the Activity in [22] was 11.14%; in experiment [23], 34.81%; in [24], 4.59%. For the same compound, the result in experiment [7], in experiment [9] and in [13] was Active.
Take `C[C@H](CCC(=O)N1CCN(Cc2ccccc2)CC1)[C@H]1CC[C@H]2[C@@H]3CC[C@@H]4C[C@H](O)CC[C@]4(C)[C@H]3CC[C@]12C`: the Activity result in [1], in [2] and in [3] was “Dose-dependent effect” throughout.
As for `C[C@H](CCC(=O)N1CCN(C/C=C/c2ccccc2)CC1)[C@H]1CC[C@H]2[C@@H]3[C@H](O)C[C@@H]4C[C@H](O)CC[C@]4(C)[C@H]3CC[C@]12C`, the negative logarithm of the IC50 (pIC50) is 4.44 in [4], 4.47 in experiment [8] and 4.46 in experiment [18]. Further, the Activity in [5] was found to be 8.79%; in experiment [6], 24%; in experiment [10], 18.8%; in experiment [11], 6.22%; in experiment [12], 34.87%; in experiment [14], 31.2%. The Activity in experiment [15] was found to be 49.8%; in experiment [16], 11.3%; in experiment [17] it was 28.49%; in [19], 22.5%; in [20], 18.65%; in experiment [21], 33%. Moreover, the Activity in experiment [22] was determined as 4.77%; in [23], 48.38%; in [24], 37.73%. Moreover, the result in experiment [7], in experiment [9] and in [13] was Active.
For `C[C@H](CCC(=O)N1CCN(C(c2ccccc2)c2ccc(Cl)cc2)CC1)[C@H]1CC[C@H]2[C@@H]3CC[C@@H]4C[C@H](O)CC[C@]4(C)[C@H]3C[C@H](O)[C@]12C` (stereo not given in full), the Activity result in experiment [1], in [2] and in experiment [3] was “Dose-dependent effect” in each case.
Take `C[C@H](CCC(=O)N1CCN(Cc2ccccc2)CC1)[C@H]1CC[C@H]2[C@@H]3[C@H](O)C[C@@H]4C[C@H](O)CC[C@]4(C)[C@H]3CC[C@]12C`: the negative logarithm of the IC50 (pIC50) in experiment [4] was 4.48; in [8], 4.64; in experiment [18], 4.44. In addition, the Activity in [5] turned out to be 8.57%; in experiment [6] it was 40%; in experiment [10], 14.1%; in experiment [11], 32.2%; in experiment [12], 22.54%; in experiment [14] it was 13%. The Activity is 10.7% in experiment [15]; 26.6% in experiment [16]; 49.08% in experiment [17]; 17.8% in [19]; 17.11% in experiment [20]; 36.9% in [21]. Also, the Activity in [22] is reported as 13.63%; in experiment [23], 18.13%; in experiment [24] it was 20.33%. Also, the result in [7], in experiment [9] and in experiment [13] was Active.
Regarding `C[C@H](CCC(=O)N1CCN(C(c2ccc(F)cc2)c2ccc(F)cc2)CC1)[C@H]1CC[C@H]2[C@@H]3[C@H](O)C[C@@H]4C[C@H](O)CC[C@]4(C)[C@H]3CC[C@]12C`, the Activity result in experiment [1], in experiment [2] and in experiment [3] was “Dose-dependent effect” throughout.

In general, pIC50 refers to the IC50 on a negative log10 scale, so that one unit is a factor of ten.
